Measured values published in PMC6100082, “Pyridine-Ureas as Potential Anticancer Agents: Synthesis and In Vitro Biological Evaluation” (Molecules : A Journal of Synthetic Chemistry and Natural …, 2018).

Columns and labels:
NCI 58 cell line panel = experiment: NCI one-dose SRB assay, whole panel / subpanel summary; assay type: cell-based, human
Protocol: (§1) The structures of all the newly prepared pyridine-ureas 8a–n were submitted to the National Cancer Institute (NCI) Developmental Therapeutic Program. Eight compounds 8b, 8d, 8e, 8i, 8j and 8l–n were selected to be examined for their in vitro growth inhibitory activity. The anticancer assays were carried out according to the protocol of the Drug Evaluation Branch, NCI, Bethesda. The selected pyridine-ureas were tested at one dose primary anticancer assay against a panel of approximately 58 cancer lines (concentration 10^−5 M). The tested human cancer cell lines emerged from nine different cancer subtypes: leukemia, colon, melanoma, ovarian, lung, CNS, renal, breast and prostate cancers. The sulforhodamine B (SRB) protein assay was adopted to estimate the cell viability and growth. The results were reported as mean-graph of the percentage growth of the treated cells, and presented as percentage growth inhibition (GI%) caused by the test compounds (Table 2).
(§2) The anticancer assays were performed in accordance with the protocol of the Drug Evaluation Branch, NCI, Bethesda. A 48 h drug exposure protocol was used and sulforhodamine B (SRB) protein assay was applied to estimate the cell viability and growth, as reported earlier.

COLO 205 = experiment: NCI one-dose SRB assay (Colon Cancer); assay type: cell-based, human
Protocol: as §1, §2

HCC-2998 = experiment: NCI one-dose SRB assay (Colon Cancer); assay type: cell-based, human
Protocol: as §1, §2

HCT-116 = experiment: NCI one-dose SRB assay (Colon Cancer); assay type: cell-based, human
Protocol: as §1, §2

HCT-15 = experiment: NCI one-dose SRB assay (Colon Cancer); assay type: cell-based, human
Protocol: as §1, §2

HT29 = experiment: NCI one-dose SRB assay (Colon Cancer); assay type: cell-based, human
Protocol: as §1, §2

KM12 = experiment: NCI one-dose SRB assay (Colon Cancer); assay type: cell-based, human
Protocol: as §1, §2

SW-620 = experiment: NCI one-dose SRB assay (Colon Cancer); assay type: cell-based, human
Protocol: as §1, §2

SF-295 = experiment: NCI one-dose SRB assay (CNS Cancer); assay type: cell-based, human
Protocol: as §1, §2

SF-539 = experiment: NCI one-dose SRB assay (CNS Cancer); assay type: cell-based, human
Protocol: as §1, §2

SNB-19 = experiment: NCI one-dose SRB assay (CNS Cancer); assay type: cell-based, human
Protocol: as §1, §2

SNB-75 = experiment: NCI one-dose SRB assay (CNS Cancer); assay type: cell-based, human
Protocol: as §1, §2

U251 = experiment: NCI one-dose SRB assay (CNS Cancer); assay type: cell-based, human
Protocol: as §1, §2

IGROV1 = experiment: NCI one-dose SRB assay (Ovarian Cancer); assay type: cell-based, human
Protocol: as §1, §2

NCI/ADR-RES = experiment: NCI one-dose SRB assay (Ovarian Cancer); assay type: cell-based, human
Protocol: as §1, §2

OVCAR-3 = experiment: NCI one-dose SRB assay (Ovarian Cancer); assay type: cell-based, human
Protocol: as §1, §2

OVCAR-4 = experiment: NCI one-dose SRB assay (Ovarian Cancer); assay type: cell-based, human
Protocol: as §1, §2

OVCAR-5 = experiment: NCI one-dose SRB assay (Ovarian Cancer); assay type: cell-based, human
Protocol: as §1, §2

OVCAR-8 = experiment: NCI one-dose SRB assay (Ovarian Cancer); assay type: cell-based, human
Protocol: as §1, §2

SK-OV-3 = experiment: NCI one-dose SRB assay (Ovarian Cancer); assay type: cell-based, human
Protocol: as §1, §2

BT-549 = experiment: NCI one-dose SRB assay (Breast Cancer); assay type: cell-based, human
Protocol: as §1, §2

HS 578T = experiment: NCI one-dose SRB assay (Breast Cancer); assay type: cell-based, human
Protocol: as §1, §2

MCF7 = experiment: NCI one-dose SRB assay (Breast Cancer); assay type: cell-based, human
Protocol: as §1, §2

MDA-MB-231 = experiment: NCI one-dose SRB assay (Breast Cancer); assay type: cell-based, human
Protocol: as §1, §2

MDA-MB-468 = experiment: NCI one-dose SRB assay (Breast Cancer); assay type: cell-based, human
Protocol: as §1, §2

T-47D = experiment: NCI one-dose SRB assay (Breast Cancer); assay type: cell-based, human
Protocol: as §1, §2

[1] = Homo sapiens, 10 μM, read-out: Percentage growth inhibition (GI%)

For `COc1ccc(-c2ccc(NC(=O)Nc3cccc(Cl)c3)c(C)n2)cc1OC` [Compound 8j, 1-(3-Chlorophenyl)-3-(6-(3,4-dimethoxyphenyl)-2-methylpyridin-3-yl) Urea], the inhibition at 10 µM (NCI 58 cell line panel; Homo sapiens, 10 μM, one dose, read-out: mean inhibition (mean % growth inhibition over NCI 58 cell line panel)) was 22 to 34%, the “Mean Growth Percent” value (NCI 58 cell line panel; One Dose Mean Graph, 1.00E-5 Molar) was 78.01% and the “Growth Percent” value (COLO 205; COLO 205, 1.00E-5 Molar) was 93.06%. The inhibition at 10 µM (COLO 205; Homo sapiens, COLO 205, 10 μM, read-out: Percentage growth inhibition (GI%)) was under 10%, the “Growth Percent” value (HCC-2998; HCC-2998, 1.00E-5 Molar) was 88.09% and the inhibition at 10 µM (HCC-2998; Homo sapiens, HCC-2998, 10 μM, read-out: Percentage growth inhibition (GI%)) was 12%. The “Growth Percent” value (HCT-116; HCT-116, 1.00E-5 Molar) was 63.31%, the inhibition at 10 µM (HCT-116; Homo sapiens, HCT-116, 10 μM, read-out: Percentage growth inhibition (GI%)) was 37% and the “Growth Percent” value (HCT-15; HCT-15, 1.00E-5 Molar) was 60.62%. The inhibition at 10 µM (HCT-15; Homo sapiens, HCT-15, 10 μM, read-out: Percentage growth inhibition (GI%)) was 40%, the “Growth Percent” value (HT29; HT29, 1.00E-5 Molar) was 74.98% and the inhibition at 10 µM (HT29; Homo sapiens, HT-29, HT29, 10 μM, read-out: Percentage growth inhibition (GI%)) was 26%. For the same compound, the inhibition at 10 µM (KM12; Homo sapiens, KM12, 10 μM, read-out: Percentage growth inhibition (GI%)) was 22%, the “Growth Percent” value (KM12; KM12, 1.00E-5 Molar) was 78.93% and the inhibition at 10 µM (SW-620; Homo sapiens, SW-620, 10 μM, read-out: Percentage growth inhibition (GI%)) was under 10%. For the same compound, the “Growth Percent” value (SW-620; SW-620, 1.00E-5 Molar) was 98.24%, the inhibition at 10 µM (SF-295; Homo sapiens, SF-295, 10 μM, read-out: Percentage growth inhibition (GI%)) was 17% and the “Growth Percent” value (SF-295; SF-295, 1.00E-5 Molar) was 83.73%. For the same compound, the inhibition at 10 µM (SF-539; Homo sapiens, SF-539, 10 μM, read-out: Percentage growth inhibition (GI%)) was 11%, the “Growth Percent” value (SF-539; SF-539, 1.00E-5 Molar) was 89.70% and the inhibition at 10 µM (SNB-19; Homo sapiens, SNB-19, 10 μM, read-out: Percentage growth inhibition (GI%)) was under 10%. The “Growth Percent” value (SNB-19; SNB-19, 1.00E-5 Molar) was 97.00%, the inhibition at 10 µM (SNB-75; Homo sapiens, SNB-75, 10 μM, read-out: Percentage growth inhibition (GI%)) was 16% and the “Growth Percent” value (SNB-75; SNB-75, 1.00E-5 Molar) was 84.12%. The inhibition at 10 µM (U251; Homo sapiens, U-251, U251, 10 μM, read-out: Percentage growth inhibition (GI%)) was 17%, the “Growth Percent” value (U251; U251, 1.00E-5 Molar) was 83.31% and the inhibition at 10 µM (IGROV1; Homo sapiens, IGROV-1, IGROV1, 10 μM, read-out: Percentage growth inhibition (GI%)) was under 10%. For the same compound, the “Growth Percent” value (IGROV1; IGROV1, 1.00E-5 Molar) was 100.28%, the “Growth Percent” value (NCI/ADR-RES; 1.00E-5 Molar) was 84.81% and the inhibition at 10 µM (NCI/ADR-RES; [1]) was 16%. For the same compound, the inhibition at 10 µM (OVCAR-3; Homo sapiens, OVCAR-3, 10 μM, read-out: Percentage growth inhibition (GI%)) was 10%, the “Growth Percent” value (OVCAR-3; OVCAR-3, 1.00E-5 Molar) was 90.37% and the inhibition at 10 µM (OVCAR-4; Homo sapiens, OVCAR-4, 10 μM, read-out: Percentage growth inhibition (GI%)) was under 10%. For the same compound, the “Growth Percent” value (OVCAR-4; OVCAR-4, 1.00E-5 Molar) was 91.75%, the inhibition at 10 µM (OVCAR-5; Homo sapiens, OVCAR-5, 10 μM, read-out: Percentage growth inhibition (GI%)) was 12% and the “Growth Percent” value (OVCAR-5; OVCAR-5, 1.00E-5 Molar) was 88.21%. The inhibition at 10 µM (OVCAR-8; Homo sapiens, OVCAR-8, 10 μM, read-out: Percentage growth inhibition (GI%)) was 10%, the “Growth Percent” value (OVCAR-8; OVCAR-8, 1.00E-5 Molar) was 90.16% and the inhibition at 10 µM (SK-OV-3; Homo sapiens, SK-OV-3, 10 μM, read-out: Percentage growth inhibition (GI%)) was 17%. For the same compound, the “Growth Percent” value (SK-OV-3; SK-OV-3, 1.00E-5 Molar) was 83.62%, the “Growth Percent” value (BT-549; BT-549, 1.00E-5 Molar) was 91.71% and the inhibition at 10 µM (BT-549; Homo sapiens, BT-549, 10 μM, read-out: Percentage growth inhibition (GI%)) was under 10%. The “Growth Percent” value (HS 578T; 1.00E-5 Molar) was 95.46%, the inhibition at 10 µM (HS 578T; [1]) was under 10% and the inhibition at 10 µM (MCF7; Homo sapiens, MCF7, 10 μM, read-out: Percentage growth inhibition (GI%)) was 25%. The “Growth Percent” value (MCF7; MCF7, 1.00E-5 Molar) was 75.86%, the inhibition at 10 µM (MDA-MB-231; Homo sapiens, MDA-MB-231, 10 μM, read-out: Percentage growth inhibition (GI%)) was 13% and the “Growth Percent” value (MDA-MB-231; MDA-MB-231/ATCC, 1.00E-5 Molar) was 87.05%. The inhibition at 10 µM (MDA-MB-468; Homo sapiens, MDA-MB-468, 10 μM, read-out: Percentage growth inhibition (GI%)) was 29%, the “Growth Percent” value (MDA-MB-468; MDA-MB-468, 1.00E-5 Molar) was 71.36% and the “Growth Percent” value (T-47D; 1.00E-5 Molar) was 49.90%. The inhibition at 10 µM (T-47D; Homo sapiens, T47D, 10 μM, read-out: Percentage growth inhibition (GI%)) was 51% and the melting point was 249 to 250 °C.
